Data reported in ChEMBL document CHEMBL6127100, “Plant based steroidal and triterpenoid sapogenins: Chemistry on diosgenin and biological aspects” (Eur J Med Chem, 2024).
Each block holds one molecule with its values, some of them ahead of it.

Experiments:
HeLa [1] = assay: Antiproliferative activity against human HeLa cells assessed as reduction in cell growth by MTT assay; assay type: functional, cell-based
A549 [2] = assay: Antiproliferative activity against human A549 cells assessed as inhibition of cell growth incubated for 48 hrs by tryphan blue dye based assay; assay type: functional; settings: A549, 48 h
HBL = assay: Antiproliferative activity against human HBL cells assessed as inhibition of cell growth incubated for 48 hrs by tryphan blue dye based assay; assay type: functional
SW1573 = assay: Antiproliferative activity against human SW1573 cells assessed as inhibition of cell growth incubated for 48 hrs by tryphan blue dye based assay; assay type: functional; settings: SW1573, 48 h
HeLa [3] = assay: Antiproliferative activity against human HeLa cells assessed as inhibition of cell growth incubated for 48 hrs by tryphan blue dye based assay; assay type: functional
T47D = assay: Antiproliferative activity against human T47D cells assessed as inhibition of cell growth incubated for 48 hrs by tryphan blue dye based assay; assay type: functional
WiDr = assay: Antiproliferative activity against human WiDr cells assessed as inhibition of cell growth incubated for 48 hrs by tryphan blue dye based assay; assay type: functional
MDA-MB-231 [4] = assay: Cytotoxicity against human MDA-MB-231 cells; assay type: functional, cell-based
U-937 [5] = assay: Antiproliferative activity against human U-937 cells assessed as inhibition of cell growth incubated for 72 hrs by cell-titer glo assay; assay type: functional, cell-based; settings: U-937, 72 h
T98G = assay: Antiproliferative activity against human T98G cells assessed as inhibition of cell growth incubated for 72 hrs by celltiter-glo assay; assay type: functional, cell-based
BT-474 = assay: Cytotoxicity against human BT-474 cells; assay type: functional, cell-based
DU-145 [6] = assay: Cytotoxicity against human DU-145 cells; assay type: functional, cell-based
CCRF-CEM = assay: Cytotoxicity against human CCRF-CEM cells; assay type: functional, cell-based
U-937 [7] = assay: Cytotoxicity against human U-937 cells; assay type: functional, cell-based
A549 [8] = assay: Cytotoxicity against human A549 cells assessed as reduction in cell growth incubated for 48 hrs by SRB assay; assay type: functional, cell-based; settings: A549, 48 h
DLD-1 [9] = assay: Cytotoxicity against human DLD-1 cells assessed as reduction in cell growth incubated for 48 hrs by SRB assay; assay type: functional, cell-based; settings: DLD-1, 48 h
MCF7 [10] = assay: Cytotoxicity against human MCF7 cells assessed as reduction in cell growth incubated for 48 hrs by SRB assay; assay type: functional, cell-based; settings: MCF7, 48 h
DU-145 [11] = assay: Cytotoxicity against human DU-145 cells assessed as reduction in cell growth incubated for 48 hrs by SRB assay; assay type: functional, cell-based; settings: DU-145, 48 h
FaDu [12] = assay: Cytotoxicity against human FaDu cells assessed as reduction in cell growth incubated for 48 hrs by SRB assay; assay type: functional, cell-based
RAW264.7 [13] = assay: Antiinflammatory activity in LPS-induced mouse RAW264.7 cells assessed as inhibition of IL-6 production pretreated for 1 hr followed by LPS stimulation and measured after 3 hrs by ELISA; assay type: functional; parameters: scale not given: the % may be the effect or the level left; settings: time 4 hrs
RAW264.7 [14] = assay: Anti-inflammatory activity in mouse RAW264.7 cells assessed as inhibition of LPS-induced TNFalpha production preincubated for 1 hr followed by LPS addition and measured after 24 hrs by ELISA; assay type: functional; parameters: scale not given: the % may be the effect or the level left; settings: time 25 hrs
A549 [15] = assay: Cytotoxicity against human A549 cells; assay type: functional, cell-based
DLD-1 [16] = assay: Cytotoxicity against human DLD-1 cells; assay type: functional, cell-based
MCF7 [17] = assay: Cytotoxicity against human MCF7 cells; assay type: functional, cell-based
DU-145 [18] = assay: Antiproliferative activity against human DU-145 cells; assay type: functional, cell-based
FaDu [19] = assay: Antiproliferative activity against human FaDu cells; assay type: functional, cell-based
HepG2 [20] = assay: Antiproliferative activity against human HepG2 cells assessed as reduction in cell growth; assay type: functional, cell-based
HepG2 [21] = assay: Antiproliferative activity against human HepG2 cells assessed as reduction in cell viability incubated for 48 hrs by MTT assay; assay type: functional, cell-based; settings: HepG2, 48 h
HeLa [22] = assay: Antiproliferative activity against human HeLa cells assessed as reduction in cell growth; assay type: functional, cell-based
MDA-MB-231 [23] = assay: Cytotoxicity against human MDA-MB-231 cells assessed as reduction in cell viability incubated for 24 hrs by MTT assay; assay type: functional, cell-based; settings: MDA-MB-231, 24 h
Jurkat = assay: Cytotoxicity against human Jurkat cells assessed as reduction in cell viability incubated for 24 hrs by MTT assay; assay type: functional, cell-based
RAW264.7 [24] = assay: Anti-inflammatory activity in LPS-induced mouse RAW264.7 cells assessed as reduction in TNF-alpha production at by ELISA; assay type: functional; parameters: scale not given: the % may be the effect or the level left
RAW264.7 [25] = assay: Anti-inflammatory activity in LPS-induced mouse RAW264.7 cells assessed as inhibition of IL-6 production at by ELISA; assay type: functional; parameters: scale not given: the % may be the effect or the level left
HeLa [26] = assay: Cytotoxicity against human HeLa cells assessed as reduction in cell viability incubated for 24 hrs by MTT assay; assay type: functional, cell-based
MCF7 [27] = assay: Cytotoxicity against human MCF7 cells assessed as reduction in cell viability incubated for 24 hrs by MTT assay; assay type: functional, cell-based; settings: MCF7, 24 h
HeLa [28] = assay: Growth inhibition of human HeLa cells; assay type: functional
A549 [29] = assay: Anticancer activity against human A549 cells assessed as inhibition of cell growth incubated for 48 hrs by MTT assay; assay type: functional, cell-based; settings: A549, 48 h
PC-9 = assay: Anticancer activity against human PC-9 cells assessed as inhibition of cell growth incubated for 48 hrs by MTT assay; assay type: functional, cell-based; settings: PC-9, 48 h

Structure (SMILES): CC(=O)OC[C@H](C)CCC(=O)[C@@H](C)[C@H]1[C@@H](OC(C)=O)C[C@H]2[C@@H]3CC=C4C[C@H](N=[N+]=[N-])CC[C@]4(C)[C@H]3CC[C@]12C
IC50 (HeLa [1]): 11.8 µM

Structure (SMILES): CC(CCC[C@H](C)[C@H]1[C@@H](O)C[C@H]2[C@@H]3CC=C4C[C@@H](O)CC[C@]4(C)[C@H]3CC[C@]12C)C[Se]C#N (stereo partly specified)
IC50 (A549 [2]): 1.7 µM
IC50 (HBL): 2.2 µM
IC50 (SW1573): 2.2 µM
IC50 (HeLa [3]): 3.3 µM
IC50 (T47D): 3.2 µM
IC50 (WiDr): 5.5 µM

Structure (SMILES): CC(=O)O[C@H]1CC[C@@]2(C)C(=CC[C@H]3[C@@H]4C[C@@H]5O[C@H](CC[C@@H](C)COC(=O)N6CCN(C)CC6)[C@@H](C)[C@@H]5[C@@]4(C)CC[C@@H]32)C1
IC50 (MDA-MB-231 [23]): 13.5 µM
IC50 (Jurkat): 15.8 µM
Activity (RAW264.7 [24]): 33.66%
Activity (RAW264.7 [25]): 49%

Structure (SMILES): C[C@H]1CO[C@@]2(O[C@H]3C[C@H]4[C@@H]5/C(=N/CCCCC(=O)O)C=C6C[C@@H](O)CC[C@]6(C)[C@H]5CC[C@]4(C)[C@H]3[C@@H]2C)/C(=N/O)C1
Activity (RAW264.7 [13]): 23.3%
Activity (RAW264.7 [14]): 47.7%

Structure (SMILES): CC(=O)O[C@H]1CC[C@@]2(C)C(=CC[C@H]3[C@@H]4C[C@@H]5O[C@H](CC[C@@H](C)CO)[C@@H](C)[C@@H]5[C@@]4(C)CC[C@@H]32)C1
IC50 (HeLa [26]): 11.4 µM
IC50 (MCF7 [27]): 11 µM

Structure (SMILES): CC(=O)O[C@@H]1C=C2/C(=N/O)C[C@H]3[C@@H]4C[C@@H]5OC(=O)[C@@H](C)[C@@H]5[C@@]4(C)CC[C@@H]3[C@@]2(C)CC1
IC50 (BT-474): 14.1 µM
IC50 (DU-145 [6]): 7.81 µM
GI50 (HeLa [28]): 17 µM

Continued, in another order:

IC50 (U-937 [5]): 5.41 µM
Structure (SMILES): COc1ccc(-c2cn(C3C[C@H]4[C@@H]5C[C@@H]6O[C@]7(CC[C@@H](C)CO7)[C@@H](C)[C@@H]6[C@@]5(C)CC[C@@H]4[C@@]4(C)CC[C@H](O)CC34O)nn2)cc1 (stereo partly specified)
IC50 (MDA-MB-231 [4]): 5.78 µM
IC50 (T98G): 11.4 µM
IC50 (BT-474): 4.3 µM
IC50 (DU-145 [6]): 19.8 µM

IC50 (U-937 [5]): 8.22 µM
Structure (SMILES): C[C@@H]1CC[C@@]2(OC1)O[C@H]1C[C@H]3[C@@H]4CC(n5cc(-c6ccccc6)nn5)C5(O)C[C@@H](O)CC[C@]5(C)[C@H]4CC[C@]3(C)[C@H]1[C@@H]2C (stereo partly specified)
IC50 (CCRF-CEM): 3.9 µM
IC50 (U-937 [7]): 7.9 µM
IC50 (MDA-MB-231 [4]): 3.32 µM
IC50 (BT-474): 13.2 µM
IC50 (DU-145 [6]): 7.9 µM

IC50 (DU-145 [18]): 12.8 µM
Structure (SMILES): C[C@H]1CO[C@@]2(O[C@H]3C[C@H]4[C@@H]5/C(=N/CCCCCCC(=O)O)C=C6C[C@@H](O)CC[C@]6(C)[C@H]5CC[C@]4(C)[C@H]3[C@@H]2C)/C(=N/O)C1
IC50 (A549 [8]): 17.1 µM
IC50 (DLD-1 [9]): 16 µM
IC50 (MCF7 [10]): 15.6 µM
IC50 (DU-145 [11]): 16.6 µM
IC50 (FaDu [12]): 16.6 µM
Activity (RAW264.7 [13]): 19.73%
Activity (RAW264.7 [14]): 41.72%
IC50 (A549 [15]): 15.8 µM
IC50 (DLD-1 [16]): 14.6 µM
IC50 (MCF7 [17]): 15.8 µM
IC50 (FaDu [19]): 15.2 µM

IC50 (HepG2 [20]): 17.5 µM
Structure (SMILES): C[C@@H]1CC[C@@]2(OC1)O[C@H]1C[C@H]3[C@@H]4CC=C5C[C@@H](OC6=C(Cl)C(=O)c7ccccc7C6=O)CC[C@]5(C)[C@H]4CC[C@]3(C)[C@H]1[C@@H]2C

IC50 (HepG2 [21]): 19 µM
Structure (SMILES): C[C@@H]1CC[C@@]2(OC1)O[C@H]1C[C@H]3[C@@H]4CC=C5C[C@@H](OC(=O)[C@@H](N)CCCNC(=N)N)CC[C@]5(C)[C@H]4CC[C@]3(C)[C@H]1[C@@H]2C

IC50 (HeLa [22]): 16 µM
Structure (SMILES): Cc1ccc2c(n1)C(=O)C(Cl)C(O[C@H]1CC[C@@]3(C)C(=CC[C@H]4[C@@H]5C[C@@H]6O[C@]7(CC[C@@H](C)CO7)[C@@H](C)[C@@H]6[C@@]5(C)CC[C@@H]43)C1)C2=O (stereo partly specified)

IC50 (A549 [29]): 5.1 µM
IC50 (PC-9): 8.7 µM
Structure (SMILES): C[C@@H]1CC[C@@]2(OC1)O[C@H]1C[C@H]3[C@@H]4CCC5(OC#N)C[C@@H](O)CC[C@]5(C)[C@H]4CC[C@]3(C)[C@H]1[C@@H]2C (stereo partly specified)
